According to a melting point compilation (Tetko et al.; mined from patent text by program, amines drawn as free bases though some values may be those of a salt):

| melting point | SMILES |
| --- | --- |
| 184 to 186 °C | CCOc1ccncc1NS(=O)(=O)c1nc2cc(C)nc(OC)n2n1 |
| > 225 °C | CS(=O)(=O)Nc1cc(C(O)CNC2CCN(c3ccc(C=C4SC(=O)NC4=O)cc3F)CC2)ccc1O (centres undefined) |
| 202 to 203 °C | COc1c(Cl)cc(Cl)cc1-n1c(=O)[nH]c2ccccc21 |
| 97 to 100 °C | CON=C(C1=NCCO1)c1ccccc1Oc1ccc(C(F)(F)F)cn1 |
| 167 to 168 °C | O=C(c1c(F)cccc1F)N1CNCN(c2ccc(Cl)cc2)C1=O |
| 113 to 114 °C | CC(C)C(O)(C#Cc1cccs1)c1cncnc1 (centres undefined) |
| > 320 °C | O=c1ccc2cc(-n3cnnc3)cc(C(F)(F)F)c2[nH]1 |
| 128 to 129 °C | OC(CCc1ccccc1)C(O)CCc1ccccc1 (centres undefined) |
| 211 to 213 °C | CC(C)(C)OC(=O)N1CCN(CC(=O)N2CCC3(CC2)Cn2cc([N+](=O)[O-])nc2O3)CC1 |
| 179 to 181 °C | CCCCCCC(C)NC1=NS(=O)(=O)c2sc(Cl)cc2N1 (centres undefined) |
| 132 to 136 °C | O=C(c1ccc2nonc2c1)N1CCC(O)CC1 |
| 240 to 244 °C | C=Cc1cc(Cl)cc2[nH]c(=O)c(-c3ccccc3)c(O)c12 |
| 77 to 78 °C | CCNC(=O)c1ccc(Cc2ccccc2)cn1 |
| 216 to 218 °C | Cc1ccc(C2=NNC(=O)CC2)cc1O |
| 232 to 234 °C | O=c1c(Cc2ccncc2)c(-c2ccc(Cl)cc2)[nH]c2ccccc12 |
| 189 to 190 °C | O=c1ccn(-c2cccc(C(F)(F)F)c2)nc1-c1ccnn1-c1ccccn1 |
| 124 to 127 °C | CN1CCN(c2cccc3c2C[C@H](NC(=O)c2ccc(C(=O)N4CCOCC4)cc2)CC3)CC1 |
| 140 to 143 °C | CC(=O)n1c(=NC(F)(F)F)oc2ccccc21 |
| 269 to 270 °C | Cc1cc(C#N)ccc1-c1ccc(-c2nc3cc(C#N)ccc3[nH]2)cc1 |
| 181 to 182 °C | CCOC(=O)c1ccc(NC(=O)NCCn2c(C)ccc2C)cc1 |

| melting point | SMILES |
| --- | --- |
| 326 to 330 °C | O=C(O)c1cc(Sc2nc3cc(Cl)ccc3[nH]2)c2[nH]c(=O)[nH]c2c1 |
| 74 °C | COc1cc(N)c(OCc2ccccc2)cc1OC |
| 115 °C | CN(C)c1ccc(-c2c(N3CCCC3C(=O)OC(C)(C)C)c(=O)c2=O)cc1 (centres undefined) |
| 122 to 123 °C | COc1ccc2c3c(ccc2c1)OC(=O)CC3 |
| 144 to 146 °C | N[C@H]1CC[C@@H](Oc2ccc3[nH]ncc3c2)CC1 |
| 156 to 157 °C | CCCN(CCC)C(=O)Cn1c(=O)n(C)c2cnc(-c3ccccc3)nc21 |
| 163 to 166 °C | CCC(C)C(NC(=O)OC)C(=O)NC(Cc1ccccc1)C(O)CN(Cc1ccc(-c2cncs2)cc1)NC(=O)OC(C)(C)C (centres undefined) |
| 95 to 101 °C | COC(=O)CC/C(C)=C/Cc1c(N=C=O)c2c(c(C)c1OC)COC2=O |
| 265 to 268 °C | COC(=O)c1ccc2c(c1)Nc1nccnc1S2 |
| 210 °C | COC(=O)CCCC=C1SC(=S)N(N=c2sc3ccccc3s2)C1=O |
| 179 to 180 °C | CC(C)(C)c1cc(CCc2ccccc2NC(=O)NCC(C)(C)c2ccc(F)cc2)cc(C(C)(C)C)c1O |
| 146 °C | O=C(O)CCc1cc2nc(Cl)ccc2n1S(=O)(=O)c1cccc(OC(F)(F)F)c1 |
| 140 to 141 °C | COC(=O)c1ccc(Cn2c(C)cn(C3CCc4ccccc4C3)c2=S)cc1 (centres undefined) |
| 148 to 154 °C | CCC(=O)Nc1c([N+](=O)[O-])cnn1-c1nc(Cl)c(C(F)(F)F)cc1Cl |
| 131 to 132 °C | NCCC(O)(c1ccc(Cl)cc1)c1ccc(-c2ccc(Cl)cc2)cc1 (centres undefined) |
| 87 to 89 °C | CC(=O)O[C@H]1CC[C@H](c2ccc(CCl)cc2)CC1 |
| 160 °C | O=NN(CCCl)C(=O)NC1(C(=O)Nc2nncs2)CCCC1 |
| 77 °C | CC1(C)[C@@H]2CC[C@@]1(C)C[C@H]2OC(=O)C1CCC(C(=O)O[C@@H]2C[C@]3(C)CC[C@H]2C3(C)C)CC1 (some centres undefined) |
| 156 to 158 °C | COc1ccccc1N1CCN(C2CCN(c3csc4ccccc34)CC2)CC1 |

More lines, now with the values behind:

| SMILES | melting point |
| --- | --- |
| COc1ccc2c3c([nH]c2c1[N+](=O)[O-])C(O)CC3 (centres undefined) | 192 °C |
| Cn1ccc2ccc(N3Cc4ccc(-c5cccnc5)cc4C3=O)cc21 | 187 to 188 °C |
| COc1cc(C2OCC(C)(C)C2(O)C(C)(C)C)cc(OC)c1Br (centres undefined) | 130 to 131 °C |
| CC(C=C(N)C(=O)OCc1ccc(Cl)cc1)CP(=O)(O)O (centres undefined) | 207 to 208 °C |
| Cc1ccccc1C1CCN(C2CCCCC2O)CC1 (single isomer, unassigned; (-)) | 116 to 118 °C |
| CN(C)CCNS(=O)(=O)c1cc(NC(=O)c2cnn3c(C(F)F)cc(-c4ccc(C(F)(F)F)cc4)nc23)c(Cl)s1 | 162 °C |
| COc1cc(Nc2nccc(-c3cccc(NC(=O)c4cc(C)on4)c3)n2)cc(OC)c1OC | 173 to 175 °C |
| CCN1CC(=O)N(C)c2cc([N+](=O)[O-])c(OC)cc2C1 | 129 to 131 °C |
| CCOC(=O)C(=O)CC(=O)CC(=O)c1ccc(C)cc1 | 76 °C |
| O=C(Nc1nccs1)c1cn(CC2CCCCC2)c2cc(Cl)ccc12 | 181 to 183 °C |
| O=c1[nH]nc(-c2sc3ccccc3c2Cl)o1 | 218 to 220 °C |
| Fc1ccc(C(=C2SCCCS2)c2ccc(F)cc2)cc1 | 169 to 171 °C |
| Cc1cccc(NC(=O)NC(C(=O)N(CC(=O)OC(C)(C)C)c2ccccc2)c2ccccc2)c1 (racemic) | 178 °C |
| Nc1ccc2ncc(Br)cc2n1 | 168 to 169 °C |
| c1ccc(OCc2nnn[nH]2)cc1 | 128 to 131 °C |
| COc1ccc(-c2c(Br)oc3cc(OC)cc(OC)c23)cc1 | 125 to 126 °C |
| O=C(c1cc2ccccc2[nH]1)N1CCCCC1 | 213 to 214 °C |
| CC(C)Cc1nc2sc3c(NCc4cccnc4)ncnc3c2c2c1CCC(C)(C)C2 | 230 °C |

| SMILES | melting point |
| --- | --- |
| CON=C1CSc2cccc(Cl)c2CN1 | 120 to 121 °C |
| O=C1NC(=O)C(Cc2ccc(OCCn3ncc4ccccc4c3=O)cc2)S1 (centres undefined) | 165 °C |
| CC(O)C1CCC2C3CC=C4CC(N)CCC4(C)C3CCC12C (centres undefined) | 160 °C |
| CCCCCCCCSc1nc2ccccc2[nH]1 | 110 to 113 °C |
| CC1(C)CCC(C)(C)c2cc(N)c(N)cc21 | 185 °C |
| Cc1cccc(NC(=O)Nc2cccc3c2C2CC(=O)CCN2C3=O)n1 (centres undefined) | 226 to 228 °C |
| Cc1c(C(=O)OC(C)(C)C)oc2cccc(O)c12 | 158 to 159 °C |
| CC(=O)c1cc(CN2CCNC2=O)ccc1O | 131 to 133 °C |
| CC(C)c1cccc(C(C)C)c1NC(=O)N(Cc1ccc(N(C)C)cc1)c1ccc(Cl)cc1 | 151 to 152 °C |
| O=c1[nH]c2ccccc2n1CCCN1CCN(C(c2ccccc2)c2ccccn2)CC1 (centres undefined) | 142 °C |
| O=c1[nH]ccn1-c1ccc(F)cc1F | 192 to 194 °C |
| CCOC(=O)CCCCC(=O)c1[nH]c(=O)[nH]c1C | 170 to 172 °C |
| O=c1c(N2CCCNCC2)nc2ccccc2n1-c1cccc(F)c1 | 128 to 129 °C |
| COc1ccc(OC)c(CCc2ccc3ncnc(N)c3c2)c1 | 160 to 165 °C |
| CS(=O)(=O)c1ccc(-c2oc(COc3ccccn3)nc2-c2ccc(F)cc2)cc1 | 276 to 278 °C |
| C[C@@]1(CBr)OC(=O)[C@H]2CCCN2C1=O | 107 to 109 °C |
| Cc1csc(N)c1C(=O)c1ccc(Cl)cc1 | 148 to 150 °C |
